# Test results from patent publication US8758767B2, “Antigens targeted by prevalent pathogennic T cells in type 1 diabetes and uses thereof” (Albert Einstein College of Medicine of Yeshiva University, priority 2003, dated 2014).
# Columns and labels:
# H-2Db = biological target: T1, H-2Db (Mus musculus, UniProt P01899); test: Presentation of IGRP peptide by MHC class I molecule
# T1 sequence (P01899 25-362): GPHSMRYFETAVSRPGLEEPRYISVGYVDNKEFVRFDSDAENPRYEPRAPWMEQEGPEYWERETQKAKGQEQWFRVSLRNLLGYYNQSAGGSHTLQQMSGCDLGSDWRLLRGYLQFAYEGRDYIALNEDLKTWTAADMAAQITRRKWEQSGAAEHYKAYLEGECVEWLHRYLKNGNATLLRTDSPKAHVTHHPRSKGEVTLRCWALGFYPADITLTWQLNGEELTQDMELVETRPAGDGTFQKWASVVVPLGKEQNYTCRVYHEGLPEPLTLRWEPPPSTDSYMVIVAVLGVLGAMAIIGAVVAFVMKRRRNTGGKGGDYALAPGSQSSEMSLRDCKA
# T1 sequence (P01887 21-119 partner): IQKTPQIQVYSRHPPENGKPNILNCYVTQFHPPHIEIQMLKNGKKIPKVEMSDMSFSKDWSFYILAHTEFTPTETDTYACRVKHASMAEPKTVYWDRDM
# [1] = system: T-cells from the islets of 12-week-old female NOD mice; test: Interferon-γ ELISpot of T-cells cultured from NOD islets (Example 4); type: cell-based, mouse
# Protocol: Using procedures described in Example 1, we have cultured T-cells from the islets of 12-week-old female NOD mice. T-cells were assayed for recognition of several different IGRP peptides by interferon-γ ELISpot.
# [2] = system: 8.3-CD8+ splenocytes of 8.3-NOD mice; test: Tolerogenic activity of APLs in 8.3-NOD mice; type: in vivo, mouse; conditions: single injection 100 μg in PBS, analysis 7 days later
# Protocol: (§1) Cohorts of 3-to-4 week-old female NOD mice were injected with 1-100 μg of peptide in PBS intraperitoneally. This was repeated every 2 weeks until the 7-8th week, and every 3 weeks thereafter. Mice were monitored for development of hyperglycemia until at least the 28th week of age. The 8.3-CD8+ T-cell tolerogenic activity of APLs was determined by treating 8-15 wk-old 8.3-NOD mice with one i.p. injection of 100 μg of peptide. […] Mice were sacrificed a week after treatment, and their spleens analyzed for presence of 8.3-CD8+ T-cells by flow cytometry.
# 8.3-CD8+ T-cells = test: Proliferation and cytokine secretion of naive splenic 8.3-CD8+ T-cells with peptide-pulsed NOD splenocytes; type: cell-based, mouse; conditions: FIG. 5, peptide 0.01-1 μM
# Protocol: Naïve or NRP-A7-differentiated (see below) splenic CD8+ T-cells from 8.3-NOD mice (2×10^4/well) were incubated, in duplicate, with peptide-pulsed (0.01, 0.1 and 1 μM), γ-irradiated (3,000 rad) NOD splenocytes (10^5/well) for 3 days at 37° C. in 5% CO2. Cultures were pulsed with 1 μCi of (^3H)-thymidine during the last 18 hours of culture and harvested.
# Naïve splenic CD8+ T-cells from 8.3-NOD mice (2×10^4/well) were incubated with peptide-pulsed (0.001, 0.01, 0.1, 1 and/or 10 μM) γ-irradiated NOD splenocytes (10^5/well) in 96-well plates for 48 hours at 37° C. Short-term islet-derived T-cell lines from peptide-treated or unmanipulated NOD mice (adjusted at 2×10^4 CD8+ T-cells/well) were tested the same way, but using 10 μM of peptide. The supernatants (100 μl/well) were assayed in duplicate for IL-2, IL-4, and/or IFN-γ content by ELISA using commercially available kits (Genzyme Diagnostics, Cambridge, Mass.).
# female NOD mice = test: Repeated peptide treatment of female NOD mice, diabetes development and islet-associated CD8+ T-cells; type: in vivo, mouse
# Protocol: as §1
# We next investigated whether the anti-diabetogenic activity of the above APLs was a function of “avidity”, as defined not only by the affinity of individual peptide/MHC complexes for specific TCRs, but also by the absolute number of peptide/MHC complexes that are available for recognition (i.e. dose of peptide). This was done by treating cohorts of female NOD mice with repeated injections of TUM (negative control), NRP-I4, NRP-A7 and NRP-V7 (in PBS) over a wide dose range, and by following the mice for development of diabetes (FIG. 7A, top). Starting at 3-4 weeks of age, mice received one injection of peptide i.p. every 2 (first three doses) or 3 weeks after initiation of treatment. Mice were sacrificed at diabetes onset or at the end of the follow-up period (28-32 weeks), to investigate the effects of treatment on the size and tetramer-binding avidity of the islet-associated IGRP206-214-reactive CD8+ T-cell subpopulation (FIG. 7A, bottom).
# AI12.B1.3 TCR = test: TCR transfectant peptide recognition, IL-2 release (58 α−β− cells, RMA-S/K^d presenters); type: cell-based, mouse; conditions: FIG. 2
# Excerpt: (§2) T cell receptors from the previously isolated NOD-derived β cell-autoreactive class I MHC-restricted T cell clones AI4, AI12.B1.1, AI12.B1.2, AI12.B1.3, AI15.A10, AI15.F5 (DiLorenzo et al., 1998), and 8.3 (Verdaguer et al., 1997) were expressed in the TCR^− T cell hybridoma 58α^−β^− (engineered to express the TCR ζ chain and CD8αβ and provided by H.-C. Chang, Dana Farber, Boston, Mass., USA) as described (Serreze et al., 2001). TCR expression was verified by flow cytometric analysis of growing clones using an antibody to CD3ε (145-2C11). RMA-S/K^d cells incubated overnight at 28° C. were used to present exogenously added synthetic peptides at concentrations as indicated in the figures. Peptide recognition by the TCR transfectants was measured by IL-2 production as previously described (Serreze et al., 2001).
# AI15.F5 TCR = test: as above; type: cell-based, mouse; conditions: FIG. 2
# Excerpt: as §2
sequence,measurement,setting,value
CALTSLTTM [IGRP296-304],presentation by MHC class I molecule,H-2Db,is presented by the MHC class I molecule H-2Db
FLWSVFWLI [IGRP152-160],T-cell reactivity by interferon-γ ELISpot,[1],Reactivity was found
"KYNKANVFL [NRP-V7, reference compound]",8.3-CD8+ splenocytes after treatment,[2],fewer 8.3-CD8+ splenocytes
same,agonistic activity on 8.3-CD8+ T-cells,8.3-CD8+ T-cells,superior agonistic activity
same,anti-diabetogenic activity,female NOD mice; any dose,not significantly protective
same,protection from diabetes by chronic treatment (discussion summary),"female NOD mice; intermediate doses NRP-A7, high doses NRP-I4, low or high doses NRP-V7, high doses IGRP206-214",only afforded marginal protection from disease
same,NRP-V7-reactive CD8+ cells in the islets,female NOD mice; over a range of doses,almost completely devoid
same,recognition by AI12.B1.3 (IL-2 release),AI12.B1.3 TCR,recognized
same,recognition by AI15.F5 (IL-2 release),AI15.F5 TCR,responded
